The test system of the assay is orthotopic MBT-2 mouse bladder tumors. Kind of assay: Antitumour activity (survival) in C3H/HEJ mice bearing orthotopic MBT-2 mouse bladder tumors. It counts as in vivo. Particulars: female C3H/HeJ mice, vinflunine ditartrate 12 mg/kg IP (Q2D×3)×2W. As for the experimental part: The antitumour activity of vinflunine alone or in combination with an anti-PD1 antibody was evaluated in C3H/HEJ mice bearing orthotopic MBT-2 mouse bladder tumors.
Vinflunine ditartrate is administered to mice at a concentration of 1.2 mg/ml in a saline buffer (0.9% NaCl).
The anti-PD1 antibody (clone: RMP1-14, catalog: BE0146, B/N: 5311-10/0914B, Bioxcell), is administered to mice at a concentration of 1 mg/ml in PBS. […] 2005 Aug. 1; 175(3):1586-92.
Vinflunine ditartrate has been injected at 12 mg/kg,
The anti-PD1 antibody has been injected at 10 mg/kg/inj.
Vinflunine ditartrate and the anti-PD1 antibody have been administered at a dose volume of 10 ml/kg/adm (i.e for one mouse weighing 20 g, 200 μl has been administered).
Vinflunine ditartrate has been injected intraperitoneally (IP) into the peritoneal cavity of mice.
The anti-PD-1 antibody has been injected intraperitoneally (IP) into the peritoneal cavity of mice. […]
Tumor cells have been e grown as monolayer at 37° C. in a humidified atmosphere (5% CO2, 95% air). […] The cells have been counted in a hemocytometer and their viability has been assessed by 0.25% trypan blue exclusion assay. […]
Antitumour activity of vinflunine ditartrate alone, anti-PD1 antibody alone or of the combination was evaluated against MBT-2 cells orthotopically implanted by instillation C3H/HEJ mice. […]

The results in this text go back to patent US20190307741A1, “[…] PD1 AND/OR PDL1 INHIBITOR AS PHARMACEUTICAL COMBINATION” (priority 2016, published 2019).

Consider “20′,20′-difluoro-3′,4′-dihydrovinorelbine [vinflunine]”, for which, under “ILS=T/C−100 (median day of death treated/control), anti-PD1 10 mg/kg/inj IP TW×2”, the “ILS: Increase of Life Span (compared to vehicle) (%)” value was determined as 46%. Moreover, the “Survival gain (compared to vehicle) Median” value (anti-PD1 antibody 10 mg/kg/inj IP TW×2, treatment from D3, relative to vehicle) stood at 10 days.
